Results taken from the NIST ThermoML archive (doi:10.1021/acs.jced.8b01237).
± gives the expanded uncertainty stated by the source.

Settings: 100 kPa, Liquid, Concentric cylinders viscometry

SMILES	viscosity (298.15 K) [mPa·s]	viscosity (318.15 K) [mPa·s]	viscosity (338.15 K) [mPa·s]
CCCC[N+]1(C)CCCC1.O=S(=O)([N-]S(=O)(=O)C(F)(F)F)C(F)(F)F	75.6 ± 12	34.3 ± 5.5	18.62 ± 3
CCCCCC[N+]1(C)CCCC1.O=S(=O)([N-]S(=O)(=O)C(F)(F)F)C(F)(F)F	98.3 ± 16	41.38 ± 6.6	21.88 ± 3.5
CCC[N+]1(C)CCCC1.O=S(=O)([N-]S(=O)(=O)C(F)(F)F)C(F)(F)F	56.6 ± 9.1	26.48 ± 4.2	15.55 ± 2.5
